PubChem BioAssay (NCI)
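All cell lines were grown in 96-well plates and treated with compound for 48 hours. GI50 is the concentration that inhibits growth by half. Definition used: TGI = concentration required for complete inhibition of growth.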

These compounds were tested on MDA-MB-468 breast (assay: DTP human tumour cell line panel, 48 h).
In the case of CCOc1cc(/C=N\NC(=O)N/N=C/c2ccc(O)c(OCC)c2)ccc1O, the GI50 was 1.44 µM and the TGI was 7.27 µM.
Work on O=C(CC1(O)C(=O)Nc2c(Cl)ccc(Cl)c21)c1ccc(C2CC2)cc1 (centres undefined) yielded a GI50 of 0.297 µM and a TGI of 10.2 µM.
CCOC(=O)C(Cc1ccc(OC)cc1)C(=O)OCC showed a GI50 of 4.17 µM and a TGI of 20.6 µM.
With CCS/C(Nc1ccccc1)=C(\C#N)C(=O)N/N=C/c1ccc(Cl)cc1Cl the GI50 was 2.6 µM and the TGI was 9.19 µM.
O=[N+]([O-])c1ccc(-c2ccccc2)c([As](=O)(O)O)c1 was tested, and the GI50 was 11.8 µM and the TGI was 28.1 µM.
CCN1C(=O)N(CC)C2C1NN=c1s/c(=C\c3ccccc3)c(=O)n12 (centres undefined) was tested, and the GI50 was 0.0867 µM and the TGI was over 100 µM.
With Cc1cc2nc3c4ccccc4n(CCN(C)C)c3nc2cc1C the GI50 was 1.32 µM and the TGI was 3.62 µM.
Work on COc1cc(C2C(C#N)=C(N)Oc3cc4c(cc32)OCO4)cc2c1OCO2 (centres undefined) yielded a GI50 of 0.112 µM and a TGI of 0.836 µM.
C=C(C)[C@@H]1CC[C@]2(C)[C@H](C=CC3=C4C[C@@](C)(CO)CC[C@]4(C)CC[C@]32C)[C@@]1(C)CCCN showed a GI50 of 1.58 µM and a TGI of 3.2 µM.
In the case of CC(=O)OCC(=O)C1(O)C(C)CC2C3C=C(C)C4=Cc5c(cnn5-c5ccccc5)CC4(C)C3C(O)CC21C (centres undefined), the GI50 was 2.03 µM and the TGI was 4.33 µM.
N#CSCC(=O)c1ccc(Cl)cc1 showed a GI50 of 2.28 µM and a TGI of 10.4 µM.
C=C1C(=O)OC2CC3(C)OC3C3OC3C3=CC(OC3=O)C12 (centres undefined) showed a GI50 of 1.58 µM and a TGI of 3.28 µM.
COc1cc(/C=C/C(=O)c2ccc(Nc3nc(Nc4ccccc4)nc(Nc4ccc(Cl)cc4)n3)cc2)cc(OC)c1OC gave a GI50 of 11.7 µM and a TGI of over 32.5 µM.
With O=C(Nc1ccc(S(=O)(=O)NC2CCCCCC2)cc1)C(c1ccccc1)S(=O)(=O)c1ccc(F)cc1 (centres undefined) the GI50 was 0.863 µM and the TGI was 3.23 µM.
Work on Cc1cc2c(C(C)C)c(O)c(O)c(C=O)c2c(O)c1-c1c(C)cc2c(C(C)C)c(O)c(O)c(C=O)c2c1O (tested in a mixture with another compound) yielded a GI50 of 1.01 µM and a TGI of 3.75 µM.
With COc1cnc2c(c1)C(=O)c1c-2n(CCCN2CCN(CCO)CC2)c(=O)c2cc([N+](=O)[O-])ccc12 the GI50 was 2.47 µM and the TGI was 7.54 µM.
Work on CCCCCCC1N=C(N)N=C(N)N1c1ccc(Cl)cc1 (centres undefined) yielded a GI50 of 1.35 µM and a TGI of 4.72 µM.
Oc1[nH]c2ccc(Cl)cc2c1/C=c1/ccc2c(c1)N=C(c1cc(F)cc(F)c1)N=2 gave a GI50 of 3.46 µM and a TGI of 13.2 µM.
COc1ccc(-n2sc(=O)n(Cc3ccc(COC(=O)C(C)c4ccc(CC(C)C)cc4)cc3)c2=O)cc1 (centres undefined) gave a GI50 of 0.925 µM and a TGI of 2.13 µM.
For CS[C@@]1(C(=O)Nc2ccc3[nH]nc(-c4ccc(OC(C)C)nc4)c3c2)CCN(CC(=O)N2CC=C(c3ccc(-c4ncn(C)n4)cc3)CC2)C1, the GI50 was over 100 µM and the TGI was over 100 µM.
With CN(NC(=O)CC(=O)NN(C)C(=S)c1ccc(Cl)cc1)C(=S)c1ccc(Cl)cc1 the GI50 was 23.9 µM and the TGI was over 100 µM.
CCN(CC)c1ccc2nc3c4ccccc4c(=NC(=O)c4ccccc4-c4c5ccc(N(CC)CC)cc5[o+]c5cc(N(CC)CC)ccc45)cc-3oc2c1 gave a GI50 of 1.01 µM and a TGI of 2.43 µM.
CCNCCNc1cc(-c2cccc(C(F)(F)F)c2)c(C#N)c2nc3ccccc3n12 showed a GI50 of 1.34 µM and a TGI of 2.84 µM.
CC(=O)N[C@@H](Cc1ccc(OP(=O)(O)O)cc1)C(=O)N[C@H]1CCC(=O)N2CCC[C@@H](C(=O)NCc3ccc(O)cc3)N2C1=O gave a GI50 of over 25 µM and a TGI of over 25 µM.
Compound C/C(=N\Nc1cccc(Cl)n1)c1ccccn1 has a GI50 of 0.764 µM and a TGI of 2.42 µM.
For CN(C)CCOc1nc2ccccc2c2c1-c1ccc(Cl)cc1C2=O, the GI50 was 0.606 µM and the TGI was 1.97 µM.
With CNCCOc1nc2c3cnccc3cc(-c3cc(OC)c(OC)c(OC)c3)c2c2ccncc12 the GI50 was 0.0278 µM and the TGI was 0.106 µM.
Work on ClC1=C(Cl)C(Cl)=C(Cl)C1=Cc1ccc(Cl)cc1 yielded a GI50 of 0.251 µM and a TGI of 0.869 µM.
In the case of CON, the GI50 was over 100 µM and the TGI was over 100 µM.
CC[C@H](C)[C@H](NC(=O)C12CC(NC(C)=O)(C1)C2)C(=O)N(C)[C@H](C[C@@H](OC(C)=O)c1nc(C(=O)N[C@@H](Cc2ccccc2)C[C@H](C)C(=O)OC)cs1)C(C)C showed a GI50 of 0.0584 µM and a TGI of over 9.3 µM.
CCc1ccccc1-n1c(N)c(C#N)c(-c2ccc(OC)c(OC)c2)c(C#N)c1=O showed a GI50 of 37.6 µM and a TGI of over 100 µM.
For C=C=[CH][Sn]([c]1ccccc1)([c]1ccccc1)[c]1ccccc1, the GI50 was 1.34 µM and the TGI was 2.66 µM.
C[C@@H](Oc1cc(-c2cnn(C3CC4(CCCNC4)C3)c2)cnc1N)c1c(Cl)ccc(F)c1Cl (some centres undefined) showed a GI50 of 1.09 µM and a TGI of 2.49 µM.
Brc1ccc(Br)nn1 was tested, and the GI50 was 1.14 µM and the TGI was 2.47 µM.
In the case of COc1ccc(NC(=O)O[C@H]2[C@H](O[C@H]3[C@@H](O)COC(O[C@H]4C[C@H]5[C@@H]6CC=C7C[C@@H](O)CC[C@]7(C)[C@H]6CC[C@]5(C)[C@H]4[C@H](C)C(=O)CCC(C)C)[C@@H]3OC(C)=O)OC[C@@H](O)[C@@H]2O)cc1 (some centres undefined), the GI50 was under 0.01 µM and the TGI was 0.63 µM.
For CN1CCN(c2ccc3nc4c(nc3c2C(F)(F)F)C(=O)c2ncccc2C4=O)CC1, the GI50 was 1.06 µM and the TGI was 2.58 µM.
For COc1ccc(C2C3=C(COC3=O)N(CCO)c3cc4c(cc32)OCCO4)cc1OC (centres undefined), the GI50 was 0.786 µM and the TGI was 5.19 µM.
With COc1ccc2c(c1)Oc1nc(N)c(C#N)c(N)c1C2Sc1ccc(C)cc1 (centres undefined) the GI50 was 1.2 µM and the TGI was 2.6 µM.
COC(=O)Nc1nc2ccc(Sc3ccccc3)cc2[nH]1 gave a GI50 of 0.165 µM and a TGI of 1.53 µM.
COc1cccc(Nc2nccc(Nc3ccc4[nH]ncc4c3)n2)c1 was tested, and the GI50 was 1.25 µM and the TGI was 2.77 µM.
In the case of O=C(NO)c1cnc(N2CCN(S(=O)(=O)c3ccc4ccccc4c3)CC2)nc1, the GI50 was 0.0743 µM and the TGI was 6.5 µM.
Work on CCCCCc1c(C)[nH]c(/C=c2\[nH]/c(=C3/C=c4ccccc4=N3)cc2OC)c1C yielded a GI50 of 0.0591 µM and a TGI of 1.63 µM.
CC(C)N(C[C@H]1O[C@@H](n2cnc3c(N)ncnc32)[C@H](O)[C@@H]1O)C1CC(CCc2nc3ccc(C(C)(C)C)cc3[nH]2)C1 (some centres undefined) showed a GI50 of 18.4 µM and a TGI of over 72.6 µM.
In the case of N#Cc1c(Oc2ccc(F)c(NC(=O)Cc3cccc(C(F)(F)F)c3)c2)ccc2nc(NC(=O)C3CC3)sc12, the GI50 was 3.98 µM and the TGI was over 100 µM.
O=c1cc(-c2ccccc2Cl)[nH]c2cc3c(cc12)OCO3 gave a GI50 of 13.9 µM and a TGI of over 100 µM.
Work on C[C@@H]1CN2[C@H]3[C@@H]1CC[C@]31CCC(=O)O[C@]1(C)[C@@H]1CC[C@H]3CCC=C3[C@@H]12 yielded a GI50 of over 70 µM and a TGI of over 70 µM.
N#CC[C@H](C1CCCC1)n1cc(-c2ncnc3[nH]ccc23)cn1 was tested, and the GI50 was 23.2 µM and the TGI was 78.8 µM.
